In patent publication US20140163095A1, “USE OF ERIBULIN IN THE TREATMENT OF BREAST CANCER” (priority 2012, published 2014):

System: locally advanced or metastatic breast cancer
Assay: Phase III clinical trial comparing eribulin mesylate and capecitabine
Conditions: for overall survival as compared to capecitabine: FIG. 6
[1] = of patients with any new metastasis

Protocol: A global, randomized, open-label, two-parallel-arm, phase III clinical trial of eribulin (eribulin mesylate) and capecitabine was performed.
This study randomized 1102 patients who had up to three prior chemotherapy regimens, and no more than two prior regimens for advanced and/or metastatic disease. The prior regimens must have included an anthracycline and a taxane, either in the (neo) adjuvant setting or for locally advanced or metastatic disease. Patients must have had documented evidence of progression during or after their most recent anti-cancer therapy. […] Patients were randomized to receive either eribulin mesylate as an intravenous (IV) infusion of 1.4 mg/m^2 over 2-5 minutes on days 1 and 8 every 21 days or capecitabine as an oral administration of 2.5 g/m^2/day administered twice daily in two equal doses on days 1 to 14 every 21 days.
This study was designed to have co-primary endpoints, overall survival (OS) and progression free survival (PFS), with alpha spending 0.04 and 0.01, respectively.
Progression events (disease progression determined by Response Evaluation Criteria in Solid Tumors [RECIST, version 1.0]) were categorized as: (i) emergence of a new lesion/metastasis, defined here as a lesion identified at progression that had not been previously reported, (ii) increase in size of an existing (previously reported) lesion (target or non-target), and (iii) other PFS event, e.g., death, clinical progression, or censoring. Investigator review of disease progression was used as the primary analysis for these investigations. Where progression was determined by investigator review, no further scans were performed, leading to informative censoring of independent review data (approximately 20%). The number of new metastases observed by independent review was considered an under-estimate due to this considerable informative censoring. OS and PFS were compared between treatment arms using two-sided, stratified (geographic region and HER2 status) log-rank tests. The correlation between progression events and OS was investigated by Cox regression, incorporating the event as a time-dependent covariate. New metastasis-free survival, defined as time from randomization to death or progression due to appearance of a new metastasis (whichever occurs earlier), was also analyzed.

Structure (SMILES): C=C1C[C@@H]2CC[C@@]34C[C@H]5O[C@H]6[C@@H](O3)[C@H]3O[C@H](CC[C@@H]3O[C@H]6[C@H]5O4)CC(=O)C[C@@H]3[C@@H](OC)[C@@H](C[C@H](O)CN)O[C@H]3C[C@H]3O[C@@H](CC[C@@H]1O2)C[C@@H](C)C3=C.CS(=O)(=O)O [Eribulin, 11,15:18,21:24,28-Triepoxy-7,9-ethano-12,15-methano-9H,15H-furo[3,2-i]furo[2′,3′:5,6]pyrano[4,3-b][1,4]dioxacyclopentacosin-5(4H)-one, 2-[(2S)-3-amino-2-hydroxypropyl]hexacosahydro-3-methoxy-26-methyl-20,27-bis(methylene)-, (2R,3R,3aS,7R,8aS,9S,10aR,11S,12R,13aR,13bS,15S,18S,21S,24S,26R,28R,29aS)-methanesulfonate (salt)]
- time to a new metastasis observed in the CNS, lungs, or liver (FIG. 5, in words): trend favouring eribulin over capecitabine
- overall survival as compared to capecitabine (HER2 negative patients, in words): increased overall survival
- median overall survival (OS) (all randomized patients): 15.9 months
- median progression-free survival (PFS) (all randomized patients): 4.1 months
- median survival as compared to capecitabine (breast cancers not characterized as triple negative, FIG. 7B, in words): similar
- New metastasis site: Bone, patients (count): 60
- New metastasis site: Breast, patients (count): 12
- New metastasis site: CNS (brain/spine), patients (count): 13
- New metastasis site: Chest wall, patients (count): 15
- New metastasis site: Liver, patients (count): 71
- New metastasis site: Lung, patients (count): 59
- New metastasis site: Lymph nodes, patients (count): 64
- New metastasis site: Other, patients (count): 30
- New metastasis site: Skin, patients (count): 23
- Number of patients with any new metastasis observed (count, investigator review, intent-to-treat): 291
- hazard ratio, overall survival (eribulin versus capecitabine, 95% CI 0.77, 1.00): 0.88
- hazard ratio, progression-free survival (eribulin versus capecitabine, 95% CI 0.93, 1.25): 1.08
- 1-year OS relative to capecitabine (in words): statistically significant improvement
- new metastasis-free survival, median difference in favour of eribulin (independent review): 0.3 months
- new metastasis-free survival, median difference in favour of eribulin (investigator review): 0.6 months
- patients with progression due to a new metastasis (investigator review): 48.9%
- patients with progression due to increase in the size of a pre-existing lesion (investigator review): 26.5%
- patients with progression due to other reasons such as death and clinical progression (investigator review): 24.5%
- patients with any new metastasis observed, percentage (investigator review, intent-to-treat): (52.5) %
- HR, new metastasis-free survival (investigator review, eribulin versus capecitabine): 0.90
- New metastasis site: Bone, percentage [1]: (20.6) %
- New metastasis site: Breast, percentage [1]: (4.1) %
- New metastasis site: CNS (brain/spine), percentage [1]: (4.5) %
- New metastasis site: Chest wall, percentage [1]: (5.2) %
- New metastasis site: Liver, percentage [1]: (24.4) %
- New metastasis site: Lung, percentage [1]: (20.3) %
- New metastasis site: Lymph nodes, percentage [1]: (22.0) %
- New metastasis site: Other, percentage [1]: (10.3) %
- New metastasis site: Skin, percentage [1]: (7.9) %
- median OS longer with eribulin compared with capecitabine (patients whose disease progressed due to a new metastasis): 2.6 months
- Median OS (patients whose disease progressed due to other events): 16.7 months
- Median OS (patients with progression due to new metastasis): 15.5 months
- Median OS (patients with progression due to pre-existing lesion): 17.4 months
- HR, overall survival (progression due to new metastasis, eribulin versus capecitabine): 0.81
- HR, overall survival (progression due to other events, eribulin versus capecitabine): 0.78
- HR, overall survival (progression due to pre-existing lesion, eribulin versus capecitabine): 1.13
- median survival as compared to capecitabine (triple negative breast cancers, FIG. 7A, in words): statistically significant increase
- overall survival as compared to capecitabine (triple negative patients, in words): most significant improvement
